Measured values from ChEMBL document CHEMBL1909046, “DrugMatrix in vitro pharmacology data”.

Biological target: T1, Nitric oxide synthase, inducible (Mus musculus, UniProt P29477);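 note: inhibition of iNOS enzyme activity measured with L-arginine as substrate; in other assays of this panel Not Active means under 50% inhibition at 10 µM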
T1 sequence (P29477 whole entry): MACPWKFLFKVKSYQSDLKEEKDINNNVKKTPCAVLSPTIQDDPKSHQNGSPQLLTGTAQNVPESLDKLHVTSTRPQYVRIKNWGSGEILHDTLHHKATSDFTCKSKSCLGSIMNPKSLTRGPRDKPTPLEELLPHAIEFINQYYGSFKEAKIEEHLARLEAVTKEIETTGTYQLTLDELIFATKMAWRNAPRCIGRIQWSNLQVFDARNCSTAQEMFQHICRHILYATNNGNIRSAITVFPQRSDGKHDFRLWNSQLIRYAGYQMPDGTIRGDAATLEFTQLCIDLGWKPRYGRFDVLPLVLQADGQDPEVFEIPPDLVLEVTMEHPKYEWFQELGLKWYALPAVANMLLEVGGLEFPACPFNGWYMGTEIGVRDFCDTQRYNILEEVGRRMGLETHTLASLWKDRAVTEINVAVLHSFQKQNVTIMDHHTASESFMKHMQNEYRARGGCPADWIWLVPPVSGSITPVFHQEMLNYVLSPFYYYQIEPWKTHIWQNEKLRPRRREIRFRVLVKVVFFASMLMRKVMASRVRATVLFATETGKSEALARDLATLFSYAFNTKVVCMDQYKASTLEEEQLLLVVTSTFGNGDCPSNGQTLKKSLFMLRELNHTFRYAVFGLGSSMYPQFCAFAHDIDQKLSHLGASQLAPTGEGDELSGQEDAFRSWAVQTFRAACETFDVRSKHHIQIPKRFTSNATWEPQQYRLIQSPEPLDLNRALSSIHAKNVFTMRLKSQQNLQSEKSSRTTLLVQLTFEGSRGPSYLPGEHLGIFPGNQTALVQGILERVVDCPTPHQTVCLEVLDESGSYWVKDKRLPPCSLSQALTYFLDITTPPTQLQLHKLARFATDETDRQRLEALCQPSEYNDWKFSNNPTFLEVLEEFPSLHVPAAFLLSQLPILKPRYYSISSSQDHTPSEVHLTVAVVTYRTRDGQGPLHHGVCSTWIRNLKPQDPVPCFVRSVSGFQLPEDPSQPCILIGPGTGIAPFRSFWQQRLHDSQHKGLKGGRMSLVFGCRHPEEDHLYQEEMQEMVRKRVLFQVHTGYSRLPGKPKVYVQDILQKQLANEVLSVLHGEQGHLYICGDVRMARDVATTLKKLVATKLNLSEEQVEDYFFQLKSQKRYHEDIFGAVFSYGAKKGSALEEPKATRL
Parameters: species or system Escherichia coli
Conditions: not given

SMILES	IC50
COC(=O)CCc1ccc(OCC(O)CNC(C)C)cc1 (stereo unspecified) [ESMOLOL]	Not Active
CCC1(C)CC(=O)NC1=O (stereo unspecified) [ETHOSUXIMIDE]	Not Active
C#C[C@]1(OC(C)=O)CC[C@H]2[C@@H]3CCC4=C[C@@H](OC(C)=O)CC[C@@H]4[C@H]3CC[C@@]21C [ETHYNODIOL DIACETATE]	Not Active
C=CCc1ccc(O)c(OC)c1 [EUGENOL]	Not Active
CC(C(=O)O)c1cccc(Oc2ccccc2)c1 (stereo unspecified) [FENOPROFEN]	Not Active
Nc1ccn([C@@H]2O[C@H](CO)[C@@H](O)C2(F)F)c(=O)n1 [GEMCITABINE]	Not Active

Biological target: Tyrosine-protein kinase Lck (Homo sapiens, UniProt P06239)
Experiment: DRUGMATRIX: Protein Tyrosine Kinase, LCK enzyme inhibition (substrate: Poly(Glu:Tyr))
Assay type: cell-based, Insect cells
Conditions: insect cells; Not Active = under 50% inhibition at 10 µM

Tyrosine-protein kinase Lck, sequence (P06239 whole entry): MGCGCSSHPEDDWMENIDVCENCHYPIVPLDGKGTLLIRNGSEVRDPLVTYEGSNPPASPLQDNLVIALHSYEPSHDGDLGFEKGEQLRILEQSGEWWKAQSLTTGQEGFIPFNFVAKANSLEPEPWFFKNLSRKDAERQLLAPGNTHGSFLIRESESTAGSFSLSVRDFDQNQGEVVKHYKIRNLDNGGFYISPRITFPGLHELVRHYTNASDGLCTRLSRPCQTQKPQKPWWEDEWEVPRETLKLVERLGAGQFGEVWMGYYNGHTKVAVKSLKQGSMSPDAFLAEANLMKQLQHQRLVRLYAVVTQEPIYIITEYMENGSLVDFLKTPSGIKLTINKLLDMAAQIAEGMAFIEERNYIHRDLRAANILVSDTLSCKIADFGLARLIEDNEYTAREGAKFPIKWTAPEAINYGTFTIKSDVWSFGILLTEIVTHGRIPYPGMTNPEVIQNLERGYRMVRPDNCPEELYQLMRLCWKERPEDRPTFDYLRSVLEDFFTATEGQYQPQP

SMILES	IC50
COC(=O)CCc1ccc(OCC(O)CNC(C)C)cc1 (stereo unspecified) [ESMOLOL]	Not Active
CCC1(C)CC(=O)NC1=O (stereo unspecified) [ETHOSUXIMIDE]	Not Active
C#C[C@]1(OC(C)=O)CC[C@H]2[C@@H]3CCC4=C[C@@H](OC(C)=O)CC[C@@H]4[C@H]3CC[C@@]21C [ETHYNODIOL DIACETATE]	Not Active
C=CCc1ccc(O)c(OC)c1 [EUGENOL]	Not Active
CC(C(=O)O)c1cccc(Oc2ccccc2)c1 (stereo unspecified) [FENOPROFEN]	Not Active
Nc1ccn([C@@H]2O[C@H](CO)[C@@H](O)C2(F)F)c(=O)n1 [GEMCITABINE]	Not Active

Test system: not listed separately
Experiment: DRUGMATRIX: Glutamate, NMDA, Phencyclidine radioligand binding (ligand: [3H] TCP)
Assay type: cell membranes, Rattus norvegicus, Wistar, Cerebral cortex, Membrane
Conditions: Not Active = under 50% inhibition at 10 µM

SMILES	IC50	Ki
COC(=O)CCc1ccc(OCC(O)CNC(C)C)cc1 (stereo unspecified) [ESMOLOL]	Not Active	Not Active
CCC1(C)CC(=O)NC1=O (stereo unspecified) [ETHOSUXIMIDE]	Not Active	Not Active
C#C[C@]1(OC(C)=O)CC[C@H]2[C@@H]3CCC4=C[C@@H](OC(C)=O)CC[C@@H]4[C@H]3CC[C@@]21C [ETHYNODIOL DIACETATE]	Not Active	Not Active
C=CCc1ccc(O)c(OC)c1 [EUGENOL]	Not Active	Not Active
CC(C(=O)O)c1cccc(Oc2ccccc2)c1 (stereo unspecified) [FENOPROFEN]	Not Active	Not Active
Nc1ccn([C@@H]2O[C@H](CO)[C@@H](O)C2(F)F)c(=O)n1 [GEMCITABINE]	Not Active	Not Active

Biological target: Mitogen-activated protein kinase 1 (Homo sapiens, UniProt P28482)
Experiment: DRUGMATRIX: Protein Serine/Threonine Kinase, ERK2 enzyme inhibition (substrate: Myelin Basic Protein)
Parameters: species or system Escherichia coli
Conditions: Not Active = under 50% inhibition at 10 µM

Mitogen-activated protein kinase 1, sequence (P28482 whole entry): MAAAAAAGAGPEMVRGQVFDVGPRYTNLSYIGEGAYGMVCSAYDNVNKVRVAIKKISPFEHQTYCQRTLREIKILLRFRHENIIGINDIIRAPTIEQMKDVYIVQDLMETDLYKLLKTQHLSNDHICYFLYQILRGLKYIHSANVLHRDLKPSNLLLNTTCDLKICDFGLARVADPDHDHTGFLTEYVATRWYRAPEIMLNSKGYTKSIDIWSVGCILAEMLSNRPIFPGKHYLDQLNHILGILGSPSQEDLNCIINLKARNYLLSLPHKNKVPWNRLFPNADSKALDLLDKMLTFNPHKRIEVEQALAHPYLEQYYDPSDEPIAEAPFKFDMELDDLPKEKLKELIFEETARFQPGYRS

SMILES	IC50
COC(=O)CCc1ccc(OCC(O)CNC(C)C)cc1 (stereo unspecified) [ESMOLOL]	Not Active
CCC1(C)CC(=O)NC1=O (stereo unspecified) [ETHOSUXIMIDE]	Not Active
C#C[C@]1(OC(C)=O)CC[C@H]2[C@@H]3CCC4=C[C@@H](OC(C)=O)CC[C@@H]4[C@H]3CC[C@@]21C [ETHYNODIOL DIACETATE]	Not Active
C=CCc1ccc(O)c(OC)c1 [EUGENOL]	Not Active
CC(C(=O)O)c1cccc(Oc2ccccc2)c1 (stereo unspecified) [FENOPROFEN]	Not Active
Nc1ccn([C@@H]2O[C@H](CO)[C@@H](O)C2(F)F)c(=O)n1 [GEMCITABINE]	Not Active

Biological target: T2, Cytochrome P450 1A2 (Homo sapiens, UniProt P05177); note: in other assays of this panel Not Active means under 50% inhibition at 10 µM
T2 sequence (P05177 whole entry): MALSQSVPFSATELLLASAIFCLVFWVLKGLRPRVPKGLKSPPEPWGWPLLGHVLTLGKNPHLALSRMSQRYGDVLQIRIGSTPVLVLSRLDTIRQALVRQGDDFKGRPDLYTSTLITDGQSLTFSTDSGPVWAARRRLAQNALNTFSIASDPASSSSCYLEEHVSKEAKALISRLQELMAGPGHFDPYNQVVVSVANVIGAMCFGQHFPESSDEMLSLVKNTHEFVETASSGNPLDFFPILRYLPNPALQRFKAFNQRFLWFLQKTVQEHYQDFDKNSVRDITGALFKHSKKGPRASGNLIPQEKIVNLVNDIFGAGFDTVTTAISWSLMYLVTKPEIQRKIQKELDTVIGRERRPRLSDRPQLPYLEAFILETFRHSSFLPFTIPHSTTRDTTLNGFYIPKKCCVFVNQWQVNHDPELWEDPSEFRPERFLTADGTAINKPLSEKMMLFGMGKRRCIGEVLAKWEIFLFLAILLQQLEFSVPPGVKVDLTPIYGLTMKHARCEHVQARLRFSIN
Conditions: bti-tn-5b1-4

SMILES	IC50	Ki
COC(=O)CCc1ccc(OCC(O)CNC(C)C)cc1 (stereo unspecified) [ESMOLOL]	Not Active	Not Active
CCC1(C)CC(=O)NC1=O (stereo unspecified) [ETHOSUXIMIDE]	Not Active	Not Active
C#C[C@]1(OC(C)=O)CC[C@H]2[C@@H]3CCC4=C[C@@H](OC(C)=O)CC[C@@H]4[C@H]3CC[C@@]21C [ETHYNODIOL DIACETATE]	Not Active	Not Active
C=CCc1ccc(O)c(OC)c1 [EUGENOL]	Not Active	Not Active
CC(C(=O)O)c1cccc(Oc2ccccc2)c1 (stereo unspecified) [FENOPROFEN]	Not Active	Not Active
Nc1ccn([C@@H]2O[C@H](CO)[C@@H](O)C2(F)F)c(=O)n1 [GEMCITABINE]	Not Active	Not Active

Biological target: Carbonic anhydrase 2 (Homo sapiens, UniProt P00918)
Experiment: DRUGMATRIX: Carbonic Anhydrase II enzyme inhibition (substrate: 4-Nitrophenyl acetate (4-NPA))
Assay type: tissue-based
Conditions: erythrocyte; Not Active = under 50% inhibition at 10 µM

SMILES	IC50
COC(=O)CCc1ccc(OCC(O)CNC(C)C)cc1 (stereo unspecified) [ESMOLOL]	Not Active
CCC1(C)CC(=O)NC1=O (stereo unspecified) [ETHOSUXIMIDE]	Not Active
C#C[C@]1(OC(C)=O)CC[C@H]2[C@@H]3CCC4=C[C@@H](OC(C)=O)CC[C@@H]4[C@H]3CC[C@@]21C [ETHYNODIOL DIACETATE]	Not Active
C=CCc1ccc(O)c(OC)c1 [EUGENOL]	Not Active
CC(C(=O)O)c1cccc(Oc2ccccc2)c1 (stereo unspecified) [FENOPROFEN]	Not Active
Nc1ccn([C@@H]2O[C@H](CO)[C@@H](O)C2(F)F)c(=O)n1 [GEMCITABINE]	Not Active

Biological target: Cytochrome P450 2C19 (Homo sapiens, UniProt P33261); note: in other assays of this panel Not Active means under 50% inhibition at 10 µM
Conditions: bti-tn-5b1-4

Cytochrome P450 2C19, sequence (P33261 whole entry): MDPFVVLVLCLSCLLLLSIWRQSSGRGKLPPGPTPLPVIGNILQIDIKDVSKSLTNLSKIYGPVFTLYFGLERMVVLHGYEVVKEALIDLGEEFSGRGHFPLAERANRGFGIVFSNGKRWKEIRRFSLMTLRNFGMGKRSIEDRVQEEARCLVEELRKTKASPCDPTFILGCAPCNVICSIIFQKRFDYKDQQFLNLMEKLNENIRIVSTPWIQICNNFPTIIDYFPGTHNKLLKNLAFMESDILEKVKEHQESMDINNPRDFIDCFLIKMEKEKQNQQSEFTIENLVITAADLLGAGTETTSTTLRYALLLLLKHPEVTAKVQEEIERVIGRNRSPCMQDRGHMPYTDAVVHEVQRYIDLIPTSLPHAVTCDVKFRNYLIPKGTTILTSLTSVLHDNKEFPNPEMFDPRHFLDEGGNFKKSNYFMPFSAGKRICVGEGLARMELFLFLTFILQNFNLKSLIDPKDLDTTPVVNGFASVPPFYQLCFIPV

SMILES	IC50	Ki
COC(=O)CCc1ccc(OCC(O)CNC(C)C)cc1 (stereo unspecified) [ESMOLOL]	Not Active	Not Active
CCC1(C)CC(=O)NC1=O (stereo unspecified) [ETHOSUXIMIDE]	Not Active	Not Active
C#C[C@]1(OC(C)=O)CC[C@H]2[C@@H]3CCC4=C[C@@H](OC(C)=O)CC[C@@H]4[C@H]3CC[C@@]21C [ETHYNODIOL DIACETATE]	Not Active	Not Active
C=CCc1ccc(O)c(OC)c1 [EUGENOL]	Not Active	Not Active
CC(C(=O)O)c1cccc(Oc2ccccc2)c1 (stereo unspecified) [FENOPROFEN]	Not Active	Not Active
Nc1ccn([C@@H]2O[C@H](CO)[C@@H](O)C2(F)F)c(=O)n1 [GEMCITABINE]	Not Active	Not Active

Biological target: T3, D(4) dopamine receptor (Homo sapiens, UniProt P21917)
T3 sequence (P21917 whole entry): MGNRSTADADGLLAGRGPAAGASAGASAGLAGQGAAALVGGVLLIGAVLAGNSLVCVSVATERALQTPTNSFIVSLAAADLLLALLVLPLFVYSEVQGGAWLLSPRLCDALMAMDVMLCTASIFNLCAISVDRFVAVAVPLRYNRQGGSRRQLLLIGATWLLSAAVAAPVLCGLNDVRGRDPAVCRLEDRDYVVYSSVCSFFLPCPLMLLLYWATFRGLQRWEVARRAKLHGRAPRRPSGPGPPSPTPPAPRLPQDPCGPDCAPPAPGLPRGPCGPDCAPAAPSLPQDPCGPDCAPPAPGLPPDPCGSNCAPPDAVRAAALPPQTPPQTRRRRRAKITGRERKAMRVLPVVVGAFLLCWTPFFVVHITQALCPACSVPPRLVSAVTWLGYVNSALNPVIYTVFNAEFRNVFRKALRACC
Experiment: DRUGMATRIX: Dopamine D4.2 radioligand binding (ligand: [3H] Spiperone)
Assay type: cell membranes, CHO-K1, Membrane
Conditions: cho-k1; Not Active = under 50% inhibition at 10 µM

SMILES	IC50
COC(=O)CCc1ccc(OCC(O)CNC(C)C)cc1 (stereo unspecified) [ESMOLOL]	Not Active
CCC1(C)CC(=O)NC1=O (stereo unspecified) [ETHOSUXIMIDE]	Not Active
C#C[C@]1(OC(C)=O)CC[C@H]2[C@@H]3CCC4=C[C@@H](OC(C)=O)CC[C@@H]4[C@H]3CC[C@@]21C [ETHYNODIOL DIACETATE]	Not Active
C=CCc1ccc(O)c(OC)c1 [EUGENOL]	Not Active
CC(C(=O)O)c1cccc(Oc2ccccc2)c1 (stereo unspecified) [FENOPROFEN]	Not Active
Nc1ccn([C@@H]2O[C@H](CO)[C@@H](O)C2(F)F)c(=O)n1 [GEMCITABINE]	Not Active
